For data set [1], the system named is NOD mouse model. Put plainly: NOD and Hashimoto's autoimmune animal models. Conditions: compared to untreated animals. In kind it is in vivo. An excerpt:
There are several animal based autoimmune models that can be used to test the use of the compounds disclosed herein for the treatment of an autoimmune disorder. Table 2 lists several exemplary immune-mediated disorders that can be treated using a peptide/MHC complex. For example, the non-obese diabetic (NOD) mouse model is an animal model system wherein animals develop diabetes with increasing age. To test the efficacy of a particular compound, groups of animals at the prediabetic stage (4 weeks or younger) are treated with, for example, LY303511, or LY303511 in combination with an additional immunosuppressive agent. The number of animals developing diabetes, and the rate that the anirnals develop diabetes, is then analyzed. Similarly, in the Hashimoto's mouse model system, to test the efficacy of a vaccine, groups of animals prior to the development of symptoms are treated with a treated with, for example, LY303511, or LY303511 in combination with an additional immunosuppressive agent. The number of animals developing the disease, and the rate that the animals develop the disease, are then analyzed.

The test system of data set [2] is A549 cells. Put plainly: Propidium iodide flow cytometry cell cycle analysis in A549 cells. In kind it is cell-based, human. A general note: In flow cytometry, cells or beads pass a laser one at a time.
Data set [3] concerns A549 cells. Put plainly: KI-67 immunostaining in A549 cells. It counts as cell-based, human. Conditions: 24 hours. The text has this:
Slides were mounted in solution containing DAPI to stain nuclei. Photos were captured using equal laser intensity and gain.

In data set [4] the test system is A549 cells. As to the kind of experiment: A549 cell count after 24 hours with inhibitors. In kind it is cell-based, human. Conditions: 100 μM LY303511, rapamycin 200 ng/ml, 200 nM wortmannin, 100 μM LY294002. Here is the method:
FIG. 2A is a bar graph showing LY303511 blocks cell proliferation, DNA synthesis, and cell cycle progression in A549 cells. A. A549 cells (80,000 cells per 35-mm dish) were grown for 1 day in medium with FBS before the addition of 0.1% DMSO, 100 μM LY303511, rapamycin, 200 ng/ml, 200 nM wortmannin, or 100 μM LY294002 for 24 hours. Cells were then incubated with trypsin, collected, and counted. Data are the means of cells/well×10^−4 ±SEM from duplicate assays in three experiments. *p<0.05 by Student's t-test. FIG. 2B is a line graph from results obtained when A549 cells (4,000 per well) in 96-well plates were grown in medium with FBS for 24 h before the addition of […] plus 0-200 μM LY303511 without or with rapamycin, 200 ng/ml, or with rapamycin alone (0-200 ng/ml). BrDU incorporation (absorbance at 490/465) was measured by in situ ELISA as per the manufacturer's instructions (BrDU detection kit, Roche). For each experiment, BrDU in cells incubated with inhibitors was expressed as a percentage of that in cells treated with 0.2% DMSO control (% control). Mean absorbance measures for controls=100% in each experiment were 0.9±0.3, 0.8±0.3, and 0.8±0.3. […]
Additionally, A549 cells (80,000 cells per well), were grown for 24 hours before addition of inhibitors (FIG. 2A). After 24 hours, trypan blue-stained cells were counted using a hemocytometer. […]

Data set [5] deals with PASM cells. As to the kind of experiment: Propidium iodide flow cytometry cell cycle analysis in PASM cells. In kind it is cell-based, human. Conditions: 24 hours. On the procedure:
FIGS. 5A-5B are bar graphs showing that LY303511 inhibits the cell cycle by causing combined G1 and G2/M arrest and that LY303511 inhibits CK2 activity. For the data shown in FIG. 5A, PASM cells were cultured in medium with FBS for 48 hours before the addition of 0-100 μM LY303511 without or with raparnycin, 400 ng/ml, for 24 hours. Cells were then harvested and incubated with propidium iodide for 2 hours before counting using a Becton-Dickson FACSCalibur. Data are the means (±SEM) of percentages of cells in G1, S, or G2/M phase of the cell cycle in three experiments with duplicate assays. *p<0.05 vs. DMSO control, or †p<0.05 vs. 10 μM LY303511, by Student's t—test. FIG. 5B is a bar graph showing that LY303511 or LY294002 inhibits CK2 in vitro. […] Data are the means of values for samples with inhibitors expressed as percentage of that for control, which was (mean±SEM) 0.2±0.03 pmol phosphate/100 ng protein/10 min. […]
In order to investigate the effect of LY303511 on the cell cycle, A549 cells or pulmonary artery smooth muscle cells were grown to sub-confluence in serum-containing media, and incubated with vehicle, 10, or 100 mcM LY303511, without or with Rapamycin (200 ng/ml), for 24 hours. […] The proportion of cells in G1, S, or G2/M phase of the cell cycle for each experimental condition was determined. […]

Each structure is given as a SMILES string.

With `O=c1cc(N2CCNCC2)oc2c(-c3ccccc3)cccc12` [LY303511, 2-(4-piperazinyl)-8-phenyl-4H-1-benzopyran-4-one], the “progression or development of autoimmune disease” value in data set [1] is “delays the progression of the disease, or provides protection from developing the disease”. The “proportion of cells in G2/M” value in data set [2] (100 μM LY303511, 24 hours) is listed as “remained unchanged”. The “fraction of cells in S phase” value in data set [2] (24 hours, 10 or 100 μM LY303511 without or with rapamycin 200 ng/ml) is listed as “significantly reduced the fraction of cells in S phase”. In data set [2] (flow cytometric analysis of propidium iodide-stained cells), the apoptosis or necrosis entry is listed as “did not induce apoptosis or necrosis”. Also, the “whole cell KI-67 levels” value in data set [3] is given as “significant decrease in whole cell KI-67 levels”. Also, in data set [4], the “cell proliferation (cell number)” value is given as “significant inhibitory effect”. Besides, in data set [5], the “G1 phase cells (G1 arrest)” value is on record as “negligible” and the “proportion of cells in S phase” value is recorded as “reduced the proportion of cells in S phase”.
